The source of these data is patent US7851474B2, “Dipiperazinyl ketones and related analogues” (Neurogen Corporation, priority 2005, dated 2010).

One may read the pKi as the Ki on a negative log10 scale, so that one unit is a factor of ten.

pKi: −log10 of the molar value.

T1 sequence (Q9Y5N1 with tags, fused parts or gaps E19D): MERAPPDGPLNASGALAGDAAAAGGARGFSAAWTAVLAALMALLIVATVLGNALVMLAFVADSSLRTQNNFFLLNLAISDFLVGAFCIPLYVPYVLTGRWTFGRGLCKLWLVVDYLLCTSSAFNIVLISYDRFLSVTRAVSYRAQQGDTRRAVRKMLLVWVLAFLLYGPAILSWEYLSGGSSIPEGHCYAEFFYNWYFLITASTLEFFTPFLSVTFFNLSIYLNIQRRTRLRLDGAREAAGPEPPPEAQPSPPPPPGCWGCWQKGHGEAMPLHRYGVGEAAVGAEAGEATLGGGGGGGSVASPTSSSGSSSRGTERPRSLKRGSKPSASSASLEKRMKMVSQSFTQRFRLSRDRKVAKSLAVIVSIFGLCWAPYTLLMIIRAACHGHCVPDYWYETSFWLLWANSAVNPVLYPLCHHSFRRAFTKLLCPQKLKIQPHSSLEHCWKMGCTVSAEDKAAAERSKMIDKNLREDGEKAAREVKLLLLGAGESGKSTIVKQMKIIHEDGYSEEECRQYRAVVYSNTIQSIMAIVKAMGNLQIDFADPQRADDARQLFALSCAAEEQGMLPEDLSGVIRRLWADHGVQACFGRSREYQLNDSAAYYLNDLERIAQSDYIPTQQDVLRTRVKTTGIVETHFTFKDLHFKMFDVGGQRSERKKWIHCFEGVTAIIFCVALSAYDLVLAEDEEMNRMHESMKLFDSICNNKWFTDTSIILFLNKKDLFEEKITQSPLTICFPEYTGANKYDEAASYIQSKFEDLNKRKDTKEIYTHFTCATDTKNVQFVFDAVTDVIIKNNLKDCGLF

One assay concerns the target T1, chimeric human H3 receptor (Homo sapiens, UniProt Q9Y5N1, E19D).
T1 construct: made in house; host or cells: Sf9 insect cells (baculovirus infection); P2 membrane preparation
Briefly: Chimeric human H3 receptor GTP binding assay (agonist-stimulated GTP-gamma35S binding, Example 7).
Conditions: not given
It is filed as biochemical. An outline of the steps:
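Sf9 membranes co-expressing the chimeric receptor and heterotrimeric G-protein subunits, 35 μg protein per tube, in pH 7.4 Tris buffer with 10 μM GDP. Test compounds at 10^−10 to 10^−6 M with 1 μM histamine, 60 min at room temperature. Filter-bound GTP-gamma^35S read by scintillation; IC50 from non-linear regression of dose-response curves.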
On the technique in general: GTPγS is a poorly hydrolysed GTP analogue; its binding reports G protein activation.
In the case of `CCN1CCN(C(=O)CN2CCN(c3ccc(Cl)cc3)CC2)CC1` [Compound 359, 1-(4-chlorophenyl)-4-[2-(4-ethylpiperazin-1-yl)-2-oxoethyl]piperazine], the pKi is greater than 6.00.

The same assay, now with this note: "*" in Ki of Table II; assay of Example 7; read-out: Ki.
On to `COc1ccc(CC(=O)N2CCN(CC(=O)N3CCN(C4CCC4)CC3)CC2)c(OC)c1` [Compound 507, 1-cyclobutyl-4-({4-[(2,4-dimethoxyphenyl)acetyl]piperazin-1-yl}acetyl)piperazine], for which the pKi is greater than 6.00.
As to `CC(=O)N1CCN(CC(=O)N2CCN(C3CCCCC3)CC2)CC1` [Compound 484, 1-acetyl-4-[2-(4-cyclohexylpiperazin-1-yl)-2-oxoethyl]piperazine], the pKi was greater than 6.00.
`O=C(CN1CCN(c2ccc(-c3ccc4c(c3)OCO4)cc2)CC1)N1CCN(C2CCC2)CC1` [Compound 458, 1-[4-(1,3-benzodioxol-5-yl)phenyl]-4-[2-(4-cyclobutylpiperazin-1-yl)-2-oxoethyl]piperazine]: the pKi is greater than 6.00.
As to `O=C(Cc1c(Cl)cccc1Cl)N1CCN(CC(=O)N2CCN(C3CCC3)CC2)CC1` [Compound 511, 1-cyclobutyl-4-({4-[(2,6-dichlorophenyl)acetyl]piperazin-1-yl}acetyl)piperazine], the pKi was greater than 6.00.

Still in this assay, the particulars now being: Table II "Ki", symbol "*": Ki in the assay of Example 7; read-out: Ki.
Regarding `CCC(C)N1CCN(C(=O)CN2CCN(c3ccc([N+](=O)[O-])cc3)CC2)CC1` (centres unmarked) [Compound 883, 1-sec-butyl-4-{[4-(4-nitrophenyl)piperazin-1-yl]acetyl}piperazine], the pKi was greater than 6.00.
`CS(=O)(=O)c1ccc(N2CCN(CC(=O)N3CCN(C4CCCC4)CC3)CC2)cc1` [Compound 828, 1-cyclopentyl-4-({4-[4-(methylsulfonyl)phenyl]piperazin-1-yl}acetyl)piperazine]: the pKi was greater than 6.00.
Take `Cc1ccc(F)c(-c2cnc(N3CCN(CC(=O)N4CCN(C5CCC5)CC4)CC3)cn2)c1Cl` [Compound 897, 2-(2-chloro-6-fluoro-3-methylphenyl)-5-{4-[2-(4-cyclobutylpiperazin-1-yl)-2-oxoethyl]piperazin-1-yl}pyrazine]: the pKi is greater than 6.00.
Turning to `COc1ccc(N2CCN(CC(=O)N3CCN(C4CCC4)CC3)CC2)cc1` [Compound 782, 1-cyclobutyl-4-{[4-(4-methoxyphenyl)piperazin-1-yl]acetyl}piperazine], the pKi is greater than 6.00.
On the same count and under the same terms, next, `CCC(C)N1CCN(C(=O)CN2CCN(c3cc(Cl)ccc3OC)CC2)CC1` (centres unmarked) [Compound 884, 1-sec-butyl-4-{[4-(5-chloro-2-methoxyphenyl)piperazin-1-yl]acetyl}piperazine]: greater than 6.00.

The same assay, now with this note: Table II, "*" in Ki; assay of Example 7; read-out: Ki.
In the case of `O=C(CN1CCN(c2cccc(F)c2)CC1)N1CCN(C2CCC2)CC1` [Compound 754, 1-cyclobutyl-4-{[4-(3-fluorophenyl)piperazin-1-yl]acetyl}piperazine], the pKi was greater than 6.00.
With `Cc1cc(-c2ccc(N3CCN(CC(=O)N4CCN(C5CCC5)CC4)CC3)cc2)ccc1F` [Compound 771, 1-cyclobutyl-4-{[4-(4′-fluoro-3′-methylbiphenyl-4-yl)piperazin-1-yl]acetyl}piperazine], the pKi was greater than 6.00.
`COC[C@@H]1CCCN1C(=O)c1cccc(N2CCN(CC(=O)N3CCN(C4CCC4)CC3)CC2)c1` [Compound 745, 1-cyclobutyl-4-{[4-(3-{[(2S)-2-(methoxymethyl)pyrrolidin-1-yl]car-bonyl}phenyl)piperazin-1-yl]acetyl}piperazine]: the pKi was greater than 6.00.
Consider `COC[C@H]1CCCN1C(=O)c1ccc(N2CCN(CC(=O)N3CCN(C4CCC4)CC3)CC2)cc1` [Compound 767, 1-cyclobutyl-4-{[4-(4-{[(2R)-2-(methoxymethyl)pyrrolidin-1-yl]carbonyl}phenyl)piperazin-1-yl]acetyl}piperazine], for which the pKi was greater than 6.00.
For `CC1CCCCN1C(=O)c1cccc(N2CCN(CC(=O)N3CCN(C4CCC4)CC3)CC2)c1` (centres unmarked) [Compound 639, 1-cyclobutyl-4-[(4-{3-[(2-methylpiperidin-1-yl)carbonyl]phenyl}piperazin-1-yl)acetyl]piperazine], the pKi was greater than 6.00.
Still for that read-out and setting: as for `Cc1noc(-c2ccc(N3CCN(CC(=O)N4CCN(C5CCC5)CC4)CC3)cc2)n1` [Compound 594, 1-cyclobutyl-4-({4-[4-(3-methyl-1,2,4-oxadiazol-5-yl)phenyl]piperazin-1-yl}acetyl)piperazine], the figure is greater than 6.00.

The assay is the same for the next values; noted with them: Table II; assay of Example 7; "*" in Ki; read-out: Ki.
Regarding `COc1ccc(-c2cnc(N3CCN(CC(=O)N4CCN(C5CCC5)CC4)CC3)cn2)c(OC)c1` [Compound 954, 2-{4-[2-(4-cyclobutylpiperazin-1-yl)-2-oxoethyl]piperazin-1-yl}-5-(2,4-dimethoxyphenyl) pyrazine], the pKi is greater than 6.00.
Turning to `CC(C)Oc1cccc(-c2ccc(N3CCN(CC(=O)N4CCN(C5CCC5)CC4)CC3)nn2)c1` [Compound 1030, 3-{4-[2-(4-cyclobutylpiperazin-1-yl)-2-oxoethyl]piperazin-1-yl}-6-(3-isopropoxyphenyl) pyridazine], the pKi is greater than 6.00.
As for `COc1cccc(-c2ccc(N3CCN(CC(=O)N4CCN(C5CCC5)CC4)CC3)nn2)c1` [Compound 1020, 3-{4-[2-(4-cyclobutylpiperazin-1-yl)-2-oxoethyl]piperazin-1-yl}-6-(3-methoxyphenyl) pyridazine], the pKi is greater than 6.00.
On the same count and under the same terms, as for `CC(C)CNC(=O)c1cccc(N2CCN(CC(=O)N3CCN(C4CCC4)CC3)CC2)c1` [Compound 1074, 3-{4-[2-(4-cyclobutylpiperazin-1-yl)-2-oxoethyl]piperazin-1-yl}-N-isobutylbenzamide], the figure is greater than 6.00.
For the molecule `CCc1ccc(-c2ccc(N3CCN(CC(=O)N4CCN(C5CCC5)CC4)CC3)nn2)cc1` [Compound 1017, 3-{4-[2-(4-cyclobutylpiperazin-1-yl)-2-oxoethyl]piperazin-1-yl}-6-(4-ethylphenyl)pyridazine], the pKi was greater than 6.00.
In the case of `Cc1cccc(N2CCN(CC(=O)N3CCN(C4CCC4)CC3)CC2C)c1` (centres unmarked) [Compound 1104, 4-[2-(4-cyclobutylpiperazin-1-yl)-2-oxoethyl]-2-methyl-1-(3-methylphenyl)piperazine], the pKi is greater than 6.00.
For `O=C(CN1CCN(c2ccc(C(=O)N3CCSCC3)cn2)CC1)N1CCN(C2CCC2)CC1` [Compound 1101], the pKi is greater than 6.00.

Staying with this assay, now noted: assay of Example 7; "*" in Ki of Table II; read-out: Ki.
For `CCCC(C)NC(=O)c1ccc(N2CCN(CC(=O)N3CCN(C4CCC4)CC3)CC2)cc1` (centres unmarked) [Compound 1142, 4-{4-[2-(4-cyclobutylpiperazin-1-yl)-2-oxoethyl]piperazin-1-yl}-N-(1-methylbutyl)benzamide], the pKi was greater than 6.00.
`O=C(NC1CCN(CC(=O)N2CCN(C3CCC3)CC2)C1)c1ccccc1` (centres unmarked) [Compound 1253, N-{1-[2-(4-cyclobutylpiperazin-1-yl)-2-oxoethyl]pyrrolidin-3-yl}benzamide]: the pKi was greater than 6.00.
The same measure, in the same setting: next, `CCOC(=O)c1ccc(-c2ccc(N3CCN(CC(=O)N4CCN(C5CCC5)CC4)CC3)nn2)cc1` [Compound 1198, ethyl 4-(6-{4-[2-(4-cyclobutylpiperazin-1-yl)-2-oxoethyl]piperazin-1-yl}pyridazin-3-yl)benzoate]: greater than 6.00; `CCOC(=O)c1cccc(-c2ccc(N3CCN(CC(=O)N4CCN(C5CCC5)CC4)CC3)cc2)c1` [Compound 1200, ethyl 4′-{4-[2-(4-cyclobutylpiperazin-1-yl)-2-oxoethyl]piperazin-1-yl}biphenyl-3-carboxylate]: greater than 6.00.

Still in this assay, the particulars now being: assay of Example 7; symbol * in column headed Ki of Table II; read-out: Ki.
As to `CC(=O)c1ccc(N2C(=O)C3(CCN(CC(=O)N4CCN(C5CCC5)CC4)CC3)c3ccccc32)nc1` [Compound 363, 1-(5-acetylpyridin-2-yl)-1′-[2-(4-cyclobutylpiperazin-1-yl)-2-oxoethyl]spiro[indole-3,4′-piperidin]-2(1H)-one], the pKi was greater than 6.00.
Turning to `CC(O)c1ccc(N2CC3CC2CN3CC(=O)N2CCN(C3CCC3)CC2)cc1` (centres unmarked) [Compound 331, 1-(4-{5-[2-(4-cyclobutylpiperazin-1-yl)-2-oxoethyl]-2,5-diazabicyclo[2.2.1]hept-2-yl}phenyl)ethanol], the pKi was greater than 6.00.
Consider `COc1ccc(Cl)cc1-c1ccc(N2CCN(CC(=O)N3CCN(C4CCC4)CC3)CC2)cc1` [Compound 365, 1-(5′-chloro-2′-methoxybiphenyl-4-yl)-4-[2-(4-cyclobutylpiperazin-1-yl)-2-oxoethyl]piperazine], for which the pKi was greater than 6.00.
For `CCN1CCN(C(=O)CN2CCN(c3ccc(Cl)c(C)c3)CC2)CC1` [Compound 352, 1-(4-chloro-3-methylphenyl)-4-[2-(4-ethylpiperazin-1-yl)-2-oxoethyl]piperazine], the pKi was greater than 6.00.
On to `COc1cc(N2CCN(CC(=O)N3CCN(C4CCCC4)CC3)CC2)ccc1Br` [Compound 334, 1-(4-bromo-3-methoxyphenyl)-4-[2-(4-cyclopentylpiperazin-1-yl)-2-oxoethyl]piperazine], for which the pKi is greater than 6.00.
Same read-out and setting: as for `CC(C)C(=O)c1ccc(N2CCN(CC(=O)N3CCN(C4CCC4)CC3)CC2)cc1` [Compound 313, 1-(4-{4-[2-(4-cyclobutylpiperazin-1-yl)-2-oxoethyl]piperazin-1-yl}phenyl)-2-methylpropan-1-one], the figure is greater than 6.00; as for `COc1cc(N2CCN(CC(=O)N3CCN(C4CCCC4)CC3)CC2)ccc1Cl` [Compound 346, 1-(4-chloro-3-methoxyphenyl)-4-[2-(4-cyclopentylpiperazin-1-yl)-2-oxoethyl]piperazine], greater than 6.00; as for `CC(=O)c1ccc(N2CCN(CC(=O)N3CCN(C4CCCC4)CC3)CC2)nc1` [Compound 373, 1-(6-{4-[2-(4-cyclopentylpiperazin-1-yl)-2-oxoethyl]piperazin-1-yl}pyridin-3-yl)ethanone], greater than 6.00.
